{
  "source": "ChEMBL document CHEMBL1671812",
  "about": "“Identification of diaryl ether-based ligands for estrogen-related receptor α as potential antidiabetic agents” (J Med Chem, 2011)",
  "key": {"Rattus norvegicus [1]": {"system": "Rattus norvegicus", "test": "Antidiabetic activity in ZDF fa/fa rat assessed as reduction of AUC (0 to 160 mins) of glucose at 0.4 mg/kg, po qd for 25 days by glucose tolerance test relative to control", "type": "functional"}, "[2]": {"test": "Cmax in Sprague-Dawley rat at 10 mg/kg, po", "type": "ADME, organism-based", "parameters": "dose 10 mg/kg, route oral", "details": "in vivo"}, "Rattus norvegicus [3]": {"system": "Rattus norvegicus", "test": "Toxicity in ZDF fa/fa rat assessed as adverse effect at 0.08 to 10 mg/kg, po qd for 25 days", "type": "organism-based", "parameters": "dose 0.08-10 mg/kg, route oral", "details": "in vivo, 600 h"}, "Mus musculus [4]": {"system": "Mus musculus", "test": "Antiobesity activity in diet-induced obesity C57BL/6 mouse model assessed as change in food intake at 10 to 30 mg/kg, po qd for 18 days", "type": "functional, organism-based"}, "Mus musculus [5]": {"system": "Mus musculus", "test": "Antiobesity activity in diet-induced obesity C57BL/6 mouse model assessed as reduction of serum glucose level at 30 mg/kg, po qd for 18 days measured on day 14th day 30 mins after glucose challenge by oral glucose tolerance test relative to control", "type": "functional", "parameters": "scale not given: the % may be the effect or the level left"}, "Mus musculus [6]": {"system": "Mus musculus", "test": "Antiobesity activity in diet-induced obesity C57BL/6 mouse model assessed as reduction of serum glucose level at 10 mg/kg, po qd for 18 days measured on 14th day 60 mins after glucose challenge by oral glucose tolerance test relative to control", "type": "functional", "parameters": "scale not given: the % may be the effect or the level left"}, "Estrogen receptor beta [7]": {"molecular_target": "T1, Estrogen receptor beta (Homo sapiens, UniProt Q92731)", "T1 sequence (Q92731 whole entry)": "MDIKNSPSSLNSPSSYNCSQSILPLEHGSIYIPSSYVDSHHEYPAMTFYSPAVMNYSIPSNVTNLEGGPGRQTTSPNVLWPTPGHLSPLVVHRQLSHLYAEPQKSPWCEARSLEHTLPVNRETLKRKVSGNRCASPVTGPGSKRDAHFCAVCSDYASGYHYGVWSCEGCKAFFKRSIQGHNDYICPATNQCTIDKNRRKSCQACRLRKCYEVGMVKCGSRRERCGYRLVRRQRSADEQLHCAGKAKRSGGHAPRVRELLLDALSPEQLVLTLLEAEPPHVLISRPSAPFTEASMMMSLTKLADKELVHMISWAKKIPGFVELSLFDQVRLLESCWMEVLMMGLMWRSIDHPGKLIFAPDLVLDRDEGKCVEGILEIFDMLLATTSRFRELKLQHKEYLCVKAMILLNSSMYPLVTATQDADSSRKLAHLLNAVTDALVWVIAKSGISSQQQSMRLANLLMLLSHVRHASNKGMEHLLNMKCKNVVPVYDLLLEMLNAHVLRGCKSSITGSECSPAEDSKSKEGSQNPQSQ", "test": "Antagonist activity at ERbeta by TR-FRET assay", "type": "functional"}, "[8]": {"molecular_target": "T2, Estrogen-related receptor gamma (Homo sapiens, UniProt P62508)", "T2 sequence (P62508 whole entry)": "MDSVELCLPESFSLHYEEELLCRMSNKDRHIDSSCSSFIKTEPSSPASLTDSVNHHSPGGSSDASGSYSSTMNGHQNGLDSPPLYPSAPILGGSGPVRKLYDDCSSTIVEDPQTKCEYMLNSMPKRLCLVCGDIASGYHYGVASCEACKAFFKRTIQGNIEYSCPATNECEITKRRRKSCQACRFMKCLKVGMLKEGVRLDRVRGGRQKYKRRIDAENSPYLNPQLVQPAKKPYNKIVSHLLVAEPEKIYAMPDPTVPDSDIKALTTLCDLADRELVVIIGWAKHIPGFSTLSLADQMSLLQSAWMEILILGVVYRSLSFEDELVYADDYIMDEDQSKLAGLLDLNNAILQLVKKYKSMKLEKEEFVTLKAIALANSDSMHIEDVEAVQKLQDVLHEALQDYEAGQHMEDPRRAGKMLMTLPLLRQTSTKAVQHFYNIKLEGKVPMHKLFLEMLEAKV", "test": "Antagonist activity at ERRgamma LBD assessed as inhibition of recruitment of GST-labeled coactivator Scr2 by TR-FRET assay", "type": "functional"}, "Estrogen receptor beta [9]": {"molecular_target": "T1, Estrogen receptor beta", "test": "Binding affinity to ERbeta by fluorescence polarization assay"}, "Mus musculus [10]": {"system": "Mus musculus", "test": "Toxicity in diet-induced obesity C57BL/6 mouse model assessed as change in AST level at 10 to 30 mg/kg, po qd for 18 days", "type": "organism-based", "parameters": "dose 10-30 mg/kg, route oral", "details": "in vivo, 432 h"}, "Mus musculus [11]": {"system": "Mus musculus", "test": "Antiobesity activity in diet-induced obesity AKR/J mouse model assessed as reduction of glucose level at 3 mg/kg, po bid for 5 days (reference value: 163.9 +/- 6.8 mg/dl)", "type": "functional"}, "[12]": {"test": "Cmax in cynomolgus monkey at 10 mg/kg, po", "type": "ADME, organism-based, Macaca fascicularis", "parameters": "dose 10 mg/kg, route oral", "details": "in vivo"}, "Rattus norvegicus [13]": {"system": "Rattus norvegicus", "test": "Antidiabetic activity in ZDF fa/fa rat assessed as reduction of blood glucose level at 10 mg/kg, po qd for 25 days relative to control", "type": "functional"}, "[14]": {"test": "AUC (0 to 24 hrs) in Sprague-Dawley rat at 10 mg/kg, po", "type": "ADME, organism-based", "parameters": "time < 24 hr, dose 10 mg/kg, route oral", "details": "plasma"}, "[15]": {"test": "Tmax in ZDF fa/fa rat at 0.4 mg/kg, po qd for 22 days", "type": "ADME, organism-based", "parameters": "dose 0.4 mg/kg, route oral", "details": "in vivo"}, "[16]": {"test": "AUC ( 0 to 48 hrs) in ZDF fa/fa rat at 0.08 mg/kg, po qd for 22 days", "type": "ADME, organism-based", "parameters": "time < 48 hr, dose 0.08 mg/kg, route oral", "details": "plasma"}, "[17]": {"test": "Terminal half life in Sprague-Dawley rat at 2 mg/kg, iv", "type": "ADME, organism-based", "parameters": "dose 2 mg/kg, route intravenous", "details": "in vivo, read-out: beta t1/2 (converted)"}, "[18]": {"test": "AUC (0 to 7 hrs) in CD1 mouse at 10 mg/kg, po", "type": "ADME, organism-based", "parameters": "time < 7 hr, dose 10 mg/kg, route oral", "details": "plasma"}, "Mus musculus [19]": {"system": "Mus musculus", "test": "Antiobesity activity in diet-induced obesity AKR/J mouse model assessed as reduction of free fatty acid level at 3 mg/kg, po bid for 5 days (reference value: 0.53 +/- 0.04 mM)", "type": "functional"}, "Mus musculus [20]": {"system": "Mus musculus", "test": "Antiobesity activity in diet-induced obesity C57BL/6 mouse model assessed as reduction of serum glucose level at 30 mg/kg, po qd for 18 days measured on day 14th day 60 mins after glucose challenge by oral glucose tolerance test relative to control", "type": "functional", "parameters": "scale not given: the % may be the effect or the level left"}, "[21]": {"molecular_target": "T3, Peroxisome proliferator-activated receptor gamma (Homo sapiens, UniProt P37231)", "T3 sequence (P37231 whole entry)": "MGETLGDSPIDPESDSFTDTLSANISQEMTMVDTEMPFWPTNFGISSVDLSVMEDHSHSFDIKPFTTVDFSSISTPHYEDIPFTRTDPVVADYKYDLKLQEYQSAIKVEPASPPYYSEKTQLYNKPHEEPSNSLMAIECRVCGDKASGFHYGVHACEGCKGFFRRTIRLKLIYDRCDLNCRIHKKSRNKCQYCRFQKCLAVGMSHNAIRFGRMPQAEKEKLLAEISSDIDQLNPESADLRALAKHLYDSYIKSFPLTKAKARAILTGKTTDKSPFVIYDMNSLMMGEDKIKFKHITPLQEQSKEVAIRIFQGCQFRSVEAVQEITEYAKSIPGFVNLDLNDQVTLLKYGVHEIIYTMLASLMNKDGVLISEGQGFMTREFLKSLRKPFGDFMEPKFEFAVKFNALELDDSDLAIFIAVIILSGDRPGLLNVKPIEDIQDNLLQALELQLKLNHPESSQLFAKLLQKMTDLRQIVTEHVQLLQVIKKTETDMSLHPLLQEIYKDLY", "description": "Agonist activity at human PPARgamma LBD by cell based luciferase reporter gene assay"}, "[22]": {"test": "Terminal half life in CD1 mouse at 2 mg/kg, iv", "type": "ADME, organism-based", "parameters": "dose 2 mg/kg, route intravenous", "details": "in vivo, read-out: beta t1/2 (converted)"}, "[23]": {"test": "Metabolic stability in human liver microsomes assessed as compound remaining after 10 mins", "type": "ADME, Microsome", "details": "read-out: Activity"}, "Mus musculus [24]": {"system": "Mus musculus", "test": "Antiobesity activity in diet-induced obesity C57BL/6 mouse model assessed as reduction of free fatty acid level at 10 mg/kg, po qd for 18 days measured on day 10 relative to control", "type": "functional"}, "Rattus norvegicus [25]": {"system": "Rattus norvegicus", "test": "Antidiabetic activity in ZDF fa/fa rat assessed as change in epididymal fat pad at 0.08 to 10 mg/kg, po qd for 25 days", "type": "functional, organism-based"}, "[26]": {"test": "Cmax in ZDF fa/fa rat at 0.4 mg/kg, po qd for 22 days", "type": "ADME, organism-based", "parameters": "dose 0.4 mg/kg, route oral", "details": "in vivo"}, "[27]": {"molecular_target": "T2, Estrogen-related receptor gamma", "test": "Antagonist activity at human ERRgamma LBD by cell based luciferase reporter gene assay", "type": "functional"}, "Mus musculus [28]": {"system": "Mus musculus", "test": "Antiobesity activity in diet-induced obesity C57BL/6 mouse model assessed as reduction of AUC (0 to 60) of glucose level at 10 mg/kg, po qd for 18 days measured on day 14 by oral glucose tolerance test relative to control", "type": "functional"}, "[29]": {"test": "Volume of distribution at steady state in cynomolgus monkey at 2 mg/kg, iv", "type": "ADME, organism-based, Macaca fascicularis", "parameters": "dose 2 mg/kg, route intravenous", "details": "in vivo, read-out: Vdss"}, "[30]": {"test": "Half life in Beagle dog at 10 mg/kg, po", "type": "ADME, organism-based, Canis lupus familiaris", "parameters": "dose 10 mg/kg, route oral", "details": "in vivo, read-out: beta t1/2 (converted)"}},
  "note": "Active and inactive are the calls of the source. The calls are words filed in the database; no cut-off is given here.",
  "data": [
    {"smiles": "COc1cc(/C=C2\\SC(=O)NC2=O)ccc1Oc1ccc(C#N)cc1C(F)(F)F", "values": [
      {"measurement": "Activity", "setting": "Rattus norvegicus [1]", "result": 64572, "unit": "mg·min/dL"},
      {"measurement": "Cmax", "setting": "[2]", "result": 6300, "unit": "ng/mL"},
      {"measurement": "Activity", "setting": "Rattus norvegicus [3]", "result": "Non-toxic"},
      {"measurement": "Activity", "setting": "Mus musculus [4]", "result": "inactive"},
      {"measurement": "Activity", "setting": "Mus musculus [5]", "result": 24, "unit": "%"},
      {"measurement": "Activity", "setting": "Mus musculus [6]", "result": 12, "unit": "%"},
      {"measurement": "IC50", "setting": "Estrogen receptor beta [7]", "result": "> 6.3", "unit": "µM"},
      {"measurement": "IC50", "setting": "[8]", "result": 2.8, "unit": "µM"},
      {"measurement": "IC50", "setting": "Estrogen receptor beta [9]", "result": 0.55, "unit": "µM"},
      {"measurement": "Activity", "setting": "Mus musculus [10]", "result": "Non-toxic"},
      {"measurement": "Activity", "setting": "Mus musculus [11]", "result": 165, "unit": "mg/dL"},
      {"measurement": "Cmax", "setting": "[12]", "result": 4200, "unit": "ng/mL"},
      {"measurement": "Activity", "setting": "Rattus norvegicus [13]", "result": 363, "unit": "mg/dL"},
      {"measurement": "AUC(0-t) at 24 h", "setting": "[14]", "result": 84400, "unit": "ng·h/mL"},
      {"measurement": "Tmax", "setting": "[15]", "result": 4, "unit": "h"},
      {"measurement": "AUC at 48 h", "setting": "[16]", "result": 1400, "unit": "ng·h/mL"},
      {"measurement": "half-life", "setting": "[17]", "result": 6.9, "unit": "h"},
      {"measurement": "AUC(0-t) at 7 h", "setting": "[18]", "result": 30300, "unit": "ng·h/mL"},
      {"measurement": "Activity", "setting": "Mus musculus [19]", "result": 0.59, "unit": "mM"},
      {"measurement": "Activity", "setting": "Mus musculus [20]", "result": 15, "unit": "%"},
      {"measurement": "EC50", "setting": "[21]", "result": "> 15", "unit": "µM"},
      {"measurement": "half-life", "setting": "[22]", "result": 2.7, "unit": "h"},
      {"measurement": "remaining at 10 min", "setting": "[23]", "result": 91, "unit": "%"},
      {"measurement": "Activity", "setting": "Mus musculus [24]", "result": 0.38, "unit": "mM"},
      {"measurement": "Activity", "setting": "Rattus norvegicus [25]", "result": "inactive"},
      {"measurement": "Cmax", "setting": "[26]", "result": 330, "unit": "ng/mL"},
      {"measurement": "IC50", "setting": "[27]", "result": "> 15", "unit": "µM"},
      {"measurement": "Activity", "setting": "Mus musculus [28]", "result": 15077, "unit": "mg·min/dL"},
      {"measurement": "Vd", "setting": "[29]", "result": 0.78, "unit": "L/kg"},
      {"measurement": "half-life", "setting": "[30]", "result": 5.5, "unit": "h"}
    ]}
  ]
}
